Measurements from PubChem BioAssay AID179 (DTP/NCI, 2004).
Where “and” joins values, the source holds several entries; their conditions need not be identical. Equal entries are not always repeated. Calls of active or inactive are those of the source.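 Rule for the calls: active = compounds giving half or more protection of infected cells from virus-caused growth loss, again on retest; inactive = the rest.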

Test system: CEM cells HIV-1 protection, formazan growth assay
Assay: NCI AIDS Antiviral Assay
Settings: for IC50: measured here: growth of uninfected CEM cells
In short: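 Steps: treat uninfected and HIV-1-infected human CEM cells at five drug levels; quantify growth by soluble formazan; retest any compound reaching 50% protection; classify actives from the retest.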

Row | Structure (SMILES) | EC50 | IC50 | outcome
1 | O=[N+]([O-])c1ccc(Cl)c(C=NC23CC4CC(CC(C4)C2)C3)c1 | > 200 µM | 3.89 µM | –
2 | COCCOCN(C(=O)C1=CCC2(CC1)OCCO2)c1ccccc1I | > 200 µM | > 200 µM | –
3 | Cc1ccc(-c2n[nH]c(=O)n2NC(=O)c2ccccc2C(=O)O)cc1 | – | – | inactive
4 | CCOC(C[C@H](O[Si](C)(C)C(C)(C)C)[C@H]1COC(=S)S1)OCC | > 200 µM | 155 µM | –
5 | Nc1ncc(Sc2ccccc2C(=O)O)s1 | > 200 µM | > 200 µM | –
6 | CN1CCN(C(=S)N(C)C(=O)c2cccs2)CC1 | > 891 µM | > 891 µM | –
7 | O=c1[nH]c2cc(Cl)ccc2c2ccc(Cl)cc12 | > 200 µM | > 200 µM | –
8 | COC(NC(=O)Nc1ccc(C)cc1)(C(F)(F)F)C(F)(F)F | > 200 µM | 27.5 µM | –
9 | CN1C(=O)c2ccccc2Sc2ccccc21 | 6.46 µM | 115 µM | –
10 | CC(=O)/C(=C/n1ccc(=O)[nH]c1=S)C(=O)Nc1ccc([N+](=O)[O-])cc1 | > 200 µM | 102 µM | –
11 | Cc1cn(C2CCC(CO)(CO)CC2O)c(=O)[nH]c1=O (stereo not drawn) | > 871 µM | > 871 µM | –
12 | COc1ccc2oc3c4c2c1CCC4CCC3=O (stereo not drawn) | – | – | inactive
13 | CCC(C#N)NC(=O)NC(C#N)CC (stereo not drawn) | > 200 µM | 107 µM | –
14 | C[N+](C)(C)CC1Cc2ccccc2C1=O (stereo not drawn) | – | – | inactive
15 | NC(=O)O/N=C/c1ccccn1 | > 200 µM | > 200 µM | –
16 | Cc1cn(C2CC(O)C(COC(=O)CCCCCCCCCCCBr)O2)c(=O)[nH]c1=O (stereo not drawn) | 29.5 µM | 51.3 µM | –
17 | FC(F)(Sc1nc2ccccc2[nH]1)c1nc2ccccc2o1 | > 200 µM | > 200 µM | –
18 | O=C(O)c1ccc([As](=O)(O)O)c([N+](=O)[O-])c1 | > 200 µM | > 200 µM | –
19 | CC(=O)N1C(=O)/C(=C\C(=O)c2ccc(Cl)cc2)c2ccccc21 | > 100 µM | 1.48 µM | –
20 | Cc1ccc(-n2nc(C(OC3OC(CO)C(O)C(O)C3O)C(O)CO)c3nc4cc(C)c(C)cc4nc32)cc1 (stereo not drawn) | – | – | inactive
21 | C/C=N\N1C(=O)c2ccccc2C1=O | > 191 µM | > 191 µM | –
22 | O=C1OC(=O)c2ccc3c4c(ccc1c24)C(=O)OC3=O | > 933 µM | > 933 µM | –
23 | CC(C)CNC(=O)c1c(NC(=O)c2ccccc2)sc2[nH]c(=O)n(-c3ccccc3)c(=O)c12 | > 50.1 µM | > 50.1 µM | –

Row | Structure (SMILES) | EC50 | IC50 | outcome
24 | CCCN1C(=O)c2cc(=O)n(Cc3ccccc3)c(O)c2C1C (stereo not drawn) | > 115 µM | > 115 µM | –
25 | CC(C)CCCC(C)[C@H]1CC[C@H]2[C@@H]3CC[C@H]4C[C@@H](CCC=C(c5cc(Cl)c(OCC(=O)O)c(C(=O)O)c5)c5cc(Cl)c(OCC(=O)O)c(C(=O)O)c5)CC[C@]4(C)[C@H]3CC[C@]12C (stereo partly drawn) | 91.2 µM | > 100 µM | –
26 | N/N=C1/C(=N/O)CCc2nonc21 | > 200 µM | > 200 µM | –
27 | C=C(C)CC(C)(c1cc2ccccc2n1C)N1CCOCC1 (stereo not drawn) | > 100 µM | 64.6 µM | –
28 | CC12OC3(C(O)C1O)C(C(=O)O[C@H]3CO[Si](C)(C)C(C)(C)C)C2S(=O)(=O)c1ccccc1 (stereo partly drawn) | – | – | inactive
29 | O=S(=O)(c1ccccc1)n1c(C(O)c2ccccc2)cc2ccccc21 (stereo not drawn) | > 200 µM | 17.8 µM | –
30 | OCC1O[C@H](O[C@@H]2CCCN3CC(O)C(O)[C@@H]23)C(O)C(O)C1O (stereo partly drawn) | > 1580 µM | > 1580 µM | –
31 | COc1ccc2oc3c(OC)c(OC)c(OC)cc3c(=O)c2c1 | > 8.71 µM | – | –
32 | c1ccc(SSc2ccccc2)cc1 | > 200 µM | 5.62 µM | –
33 | CC1(Br)CN(C(=S)Nc2ccccc2)C1=O (stereo not drawn) | > 200 µM | 97.7 µM | –
34 | Cc1[nH]n(-c2ncc(C(=O)O)c(=O)[nH]2)c(=O)c1CCO | > 200 µM | > 200 µM | –
35 | CCOC(=O)CSc1[nH]c(NC(=S)Nc2ccccc2)c(C(N)=O)c1C(N)=O | > 200 µM | 97.7 µM | –
36 | Cc1ccc(/C=N\NC2c3cc(Cl)ccc3Nc3nc(=O)[nH]c(C)c32)cc1 (stereo not drawn) | > 200 µM | 120 µM | –
37 | CN1C2CC(=O)CC1[C@H](O)[C@@H]2O | > 200 µM | > 200 µM | –
38 | Cc1ccc(NC(=O)CC(=O)N2N=C(N(c3ccccc3)c3ccccc3)CC2c2ccccc2)cc1 (stereo not drawn) | – | – | inactive
39 | CCOC(=O)c1ccc(N=C2S/C(=C\C(=S)Nc3ccccc3)N(c3ccccc3)C2=Nc2ccc(C(=O)OCC)cc2)cc1 | > 200 µM | > 200 µM | –
40 | C[N+]1(CCCC(O)CC[N+]2(C)CCCC2)CCCC1 (stereo not drawn) | – | – | inactive
41 | O=c1oc2c(c(=O)n1-c1ccccc1)CC1(CCCCC1)C2 | > 200 µM | > 200 µM | –
42 | C=CCOc1ccc(/C(N=Nc2ccccc2)=N/NC(=O)c2ccccc2)cc1OC | > 200 µM | 107 µM | –
43 | O=C1c2ccsc2C(=O)c2sccc21 | > 2 µM | 0.309 µM | –
44 | COc1c2occc2c([N+](=O)[O-])c2ccc(=O)oc12 | > 30.9 µM | 26.3 µM | –
45 | Cc1c2oc(=O)cc(-c3ccccc3)c2cc2c(=O)ccoc12 | > 22.4 µM | > 22.4 µM | –
46 | CCCCCCOc1ccc(C(=O)NO)cc1 | > 200 µM | 13.2 µM | –

Row | Structure (SMILES) | EC50 | IC50 | outcome
47 | CCC(C#N)(c1ccccc1)N(CCc1ccccc1)C(=O)c1ccccc1 (stereo not drawn) | > 200 µM | 191 µM | –
48 | COc1ccc(N2C(=O)C(=O)N(C)C2=O)c2ccccc12 | – | – | inactive
49 | CC(C)[C@H]1CO[C@]2(C)[C@@H]3CN(Cc4ccccc4)C[C@@H]3C(=O)N12 | > 214 µM | > 214 µM | –
50 | O=[N+]([O-])c1cc(Cl)ccc1S(=O)(=O)c1ccccc1 | > 200 µM | 30.2 µM and 55 µM | –
51 | Nc1nc(=S)c2ncn(C3CC(O)C(CO)O3)c2[nH]1 (stereo not drawn) | > 891 µM | 0.457 µM and 2.09 µM | –
52 | CCOC(=O)C(=Cn1c(=S)[nH]c2ccc([N+](=O)[O-])cc21)C(=O)OCC | > 200 µM | 77.6 µM | –
53 | CC1(C)CCCC(C)(C2CCC3(C)C2C(O)CC2C4(C)CCC(O)C(C)(C)C4C(O)CC23C)O1 (stereo not drawn) | – | – | inactive
54 | Cc1ccc(-c2cc(-c3ccccc3)c(C#N)c(=O)n2C2OC(CO)C(O)C(O)C2O)cc1 (stereo not drawn) | 21.4 µM | 22.4 µM | –
55 | CCOP(=O)(Nc1cccc(Cl)c1)OCC | > 955 µM | – | –
56 | COc1cc2c(oc(=O)c3cc4ccoc4c(OC)c32)c2cccc(O)c12 | > 1.45 µM | > 1.45 µM | –
57 | COC(=O)[C@H](CCSC)NCc1cc(N(C)C)cc(CN[C@@H](CCSC)C(=O)OC)n1 | > 200 µM | > 200 µM | –
58 | N#CC1(C#N)C(C#N)(C#N)C12CCCCC2Cl (stereo not drawn) | > 20 µM | > 20 µM | –
59 | CC(=C/c1ccccc1)/C=C1/NC(=S)NC1=O | > 200 µM | > 200 µM | –
60 | O=C(/C(=C/c1cccc(Cl)c1)c1ccccc1)c1ccccc1 | > 8.51 µM | > 8.51 µM | –
61 | C/C(C=C(C#N)C#N)=C\c1ccc([N+](=O)[O-])cc1 | > 11.5 µM | > 11.5 µM | –
62 | NC1=NC2(CS1)CSC(N)=N2 | > 263 µM | > 263 µM | –
63 | CCCCCCCC(=O)OC[C@@H](C[As](=O)(O)O)OC(=O)CCCCCCC | > 200 µM | 9.33 µM | –
64 | C[S+](C)CC(=O)c1ccc2c(c1)Sc1ccccc1O2 | > 100 µM | 2.04 µM | –
65 | N#CC(C#N)=C(C#N)C#N | > 200 µM | > 200 µM | –
66 | CC(=O)c1c2c(cc3c1CC1(Cc4ccccc4C1=O)C3)CCC2 (stereo not drawn) | > 200 µM | 17.8 µM | –
67 | Cn1c2ccccc2c(=NNc2ccc(S(N)(=O)=O)cc2)c2ccccc21 | > 200 µM | 17.4 µM | –
